Patent publication US20260132132A1, “3A,4,5,6-TETRAHYDRO-1 H-PYRAZOLO[3,4-C]PYRIDIN-7(7AH)-ONE DERIVATIVES AS FACTOR XIIA INHIBITORS” (KALVISTA PHARMACEUTICALS LIMITED, priority 2022, published 2026)

Assays:
FXa = FXa (Homo sapiens, UniProt P00742); assay: Related protease inhibition: FXa, fluorogenic substrate; type: biochemical; conditions: fluorogenic substrate at Km, 25° C.; H1-H3 = % activity at 40 μM
Procedure: Human serine protease enzyme Plasma Kallikrein, KLK1, FXa, Plasmin, Thrombin and Trypsin were assayed for enzymatic activity using an appropriate fluorogenic substrate at Km concentration, FXIa at fixed substrate concentration of 100 μM and various concentrations of the test compound.

[1] = biological target: T1, Human Factor XIIa (hFXIIa) (Homo sapiens, UniProt P00748); assay: Determination of Human Factor XIIa (hFXIIa) inhibition, fluorogenic substrate IC50 assay; type: biochemical; conditions: fluorogenic substrate H-DPro-Phe-Arg-AFC at Km, 25° C., read-out: Human FXIIa IC50
T1 construct: purchased Enzyme Research Laboratories
T1 sequence (P00748 373-615 limits assumed): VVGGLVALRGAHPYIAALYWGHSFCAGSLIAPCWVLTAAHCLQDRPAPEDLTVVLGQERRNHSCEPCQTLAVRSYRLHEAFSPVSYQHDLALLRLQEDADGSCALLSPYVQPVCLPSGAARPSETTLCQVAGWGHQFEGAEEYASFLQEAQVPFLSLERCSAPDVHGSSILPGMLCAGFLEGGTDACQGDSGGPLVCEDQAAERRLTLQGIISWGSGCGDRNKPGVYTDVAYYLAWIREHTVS
T1 sequence (P00748 20-372 partner limits assumed): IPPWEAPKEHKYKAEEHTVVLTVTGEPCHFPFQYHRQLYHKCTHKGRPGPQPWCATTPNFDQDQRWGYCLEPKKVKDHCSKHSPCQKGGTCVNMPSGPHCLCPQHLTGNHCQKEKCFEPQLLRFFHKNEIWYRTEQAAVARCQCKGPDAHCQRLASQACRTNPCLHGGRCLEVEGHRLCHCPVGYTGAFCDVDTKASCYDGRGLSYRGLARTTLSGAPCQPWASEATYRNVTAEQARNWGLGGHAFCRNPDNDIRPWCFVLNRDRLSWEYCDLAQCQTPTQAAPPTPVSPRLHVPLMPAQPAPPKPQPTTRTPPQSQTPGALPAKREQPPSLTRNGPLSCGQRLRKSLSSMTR
Procedure: Determination of Human Factor XIIa (hFXIIa) inhibition
The Km for the cleavage of the substrate by hFXIIa was determined by standard transformation of the Michaelis-Menten equation, with subsequent inhibition assays performed at substrate Km concentration.

Chain of FXa (P00742 235-488 limits assumed): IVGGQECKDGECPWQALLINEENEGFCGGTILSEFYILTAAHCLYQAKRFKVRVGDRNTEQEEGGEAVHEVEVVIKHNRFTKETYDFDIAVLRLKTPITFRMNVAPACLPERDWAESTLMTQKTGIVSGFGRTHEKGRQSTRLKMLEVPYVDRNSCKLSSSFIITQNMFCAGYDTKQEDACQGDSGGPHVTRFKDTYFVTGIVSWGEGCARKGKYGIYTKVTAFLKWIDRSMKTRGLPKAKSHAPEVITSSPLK
Chain of FXa (P00742 41-179 partner limits assumed): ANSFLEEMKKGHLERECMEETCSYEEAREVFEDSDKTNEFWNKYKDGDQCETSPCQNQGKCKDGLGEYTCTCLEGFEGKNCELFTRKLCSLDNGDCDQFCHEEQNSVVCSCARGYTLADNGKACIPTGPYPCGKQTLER

IC50 (FXa) | IC50 [1] | Structure (SMILES)
3000 to 10000 nM | 300 to 1000 nM | CN1CCc2ccc(N3CCc4c(C(=O)NC5CCOCC5)nn(-c5cccc(Cl)c5)c4C3=O)cc2C1 [Example 1043, 1-(3-chlorophenyl)-6-(2-methyl-1,2,3,4-tetrahydroisoquinolin-7-yl)-7-oxo-N-(tetrahydro-2H-pyran-4-yl)-4,5,6,7-tetrahydro-1H-pyrazolo[3,4-c]pyridine-3-carboxamide]
3000 to 10000 nM | 10 to 100 nM | CCN1CCc2ccc(N3CCc4c(C(=O)N[C@H](CO)c5ccccc5)nn(-c5cccc(Cl)c5)c4C3=O)cc2C1 [Example 1051, (S)-1-(3-chlorophenyl)-6-(2-ethyl-1,2,3,4-tetrahydroisoquinolin-7-yl)-N-(2-hydroxy-1-phenylethyl)-7-oxo-4,5,6,7-tetrahydro-1H-pyrazolo[3,4-c]pyridine-3-carboxamide]
10000 to 40000 nM | 1000 to 3000 nM | O=C(NCC1CC1)c1nn(-c2cccc(Cl)c2)c2c1CCN(c1ccc3c(c1)CNCC3)C2=O [Example 1074, 1-(3-chlorophenyl)-N-(cyclopropylmethyl)-7-oxo-6-(1,2,3,4-tetrahydroisoquinolin-7-yl)-4,5,6,7-tetrahydro-1H-pyrazolo[3,4-c]pyridine-3-carboxamide]
10000 to 40000 nM | 100 to 300 nM | O=C(NC1CCOCC1)c1nn(-c2cccc(Cl)c2)c2c1CCN(c1ccc3c(c1)CN(CCO)CC3)C2=O [Example 1076, 1-(3-chlorophenyl)-6-(2-(2-hydroxyethyl)-1,2,3,4-tetrahydroisoquinolin-7-yl)-7-oxo-N-(tetrahydro-2H-pyran-4-yl)-4,5,6,7-tetrahydro-1H-pyrazolo[3,4-c]pyridine-3-carboxamide]
3000 to 10000 nM | 10 to 100 nM | Cc1cc(CNC(=O)c2nn(-c3cccc(Cl)c3)c3c2CCN(c2ccc4c(c2)CN(CCO)CC4)C3=O)[nH]n1 [Example 1077, 1-(3-chlorophenyl)-6-(2-(2-hydroxyethyl)-1,2,3,4-tetrahydroisoquinolin-7-yl)-N-((3-methyl-1H-pyrazol-5-yl)methyl)-7-oxo-4,5,6,7-tetrahydro-1H-pyrazolo[3,4-c]pyridine-3-carboxamide]
3000 to 10000 nM | 10 to 100 nM | O=C(NCc1cccnc1)c1nn(-c2cccc(Cl)c2)c2c1CCN(c1ccc3c(c1)CN(CCO)CC3)C2=O [Example 1078, 1-(3-chlorophenyl)-6-(2-(2-hydroxyethyl)-1,2,3,4-tetrahydroisoquinolin-7-yl)-7-oxo-N-(pyridin-3-ylmethyl)-4,5,6,7-tetrahydro-1H-pyrazolo[3,4-c]pyridine-3-carboxamide]
10000 to 40000 nM | 10 to 100 nM | CCN1CCc2cc(F)c(N3CCc4c(C(=O)NCC5CC5)nn(-c5cccc(Cl)c5)c4C3=O)cc2C1 [Example 1079, 1-(3-chlorophenyl)-N-(cyclopropylmethyl)-6-(2-ethyl-6-fluoro-1,2,3,4-tetrahydroisoquinolin-7-yl)-7-oxo-4,5,6,7-tetrahydro-1H-pyrazolo[3,4-c]pyridine-3-carboxamide]
> 40000 nM | 100 to 300 nM | CCN1CCc2ccc(N3CCc4c(C(=O)NC5CCOCC5)nn(-c5cccc(Cl)c5)c4C3=O)cc2C1 [Example 1085, 1-(3-chlorophenyl)-6-(2-ethyl-1,2,3,4-tetrahydroisoquinolin-7-yl)-7-oxo-N-(tetrahydro-2H-pyran-4-yl)-4,5,6,7-tetrahydro-1H-pyrazolo[3,4-c]pyridine-3-carboxamide]
10000 to 40000 nM | 10 to 100 nM | O=C(NCc1ccn[nH]1)c1nn(-c2cccc(Cl)c2)c2c1CCN(c1ccc3c(c1)CN(CCO)CC3)C2=O [Example 1089, N-((1H-pyrazol-5-yl)methyl)-1-(3-chlorophenyl)-6-(2-(2-hydroxyethyl)-1,2,3,4-tetrahydroisoquinolin-7-yl)-7-oxo-4,5,6,7-tetrahydro-1H-pyrazolo[3,4-c]pyridine-3-carboxamide]
> 40000 nM | 100 to 300 nM | CCN1CCc2ccc(N3CCc4c(C(=O)NC5COCC5(C)C)nn(-c5cccc(Cl)c5)c4C3=O)cc2C1 (stereo not shown) [Example 1092, 1-(3-chlorophenyl)-N-(4,4-dimethyltetrahydrofuran-3-yl)-6-(2-ethyl-1,2,3,4-tetrahydroisoquinolin-7-yl)-7-oxo-4,5,6,7-tetrahydro-1H-pyrazolo[3,4-c]pyridine-3-carboxamide]
3000 to 10000 nM | 10 to 100 nM | CCN1Cc2cc(N3CCc4c(C(=O)NCC5CC5)nn(-c5cccc(Cl)c5)c4C3=O)ccc2C2(CC2)C1 [Example 1099, 1-(3-chlorophenyl)-N-(cyclopropylmethyl)-6-(2′-ethyl-2′,3′-dihydro-1′H-spiro[cyclopropane-1,4′-isoquinolin]-7′-yl)-7-oxo-4,5,6,7-tetrahydro-1H-pyrazolo[3,4-c]pyridine-3-carboxamide]
> 40000 nM | 10 to 100 nM | O=C(NCc1ccco1)c1nn(-c2cccc(Cl)c2)c2c1CCN(c1ccc3c(c1)CN(CCO)CC3)C2=O [Example 1109, 1-(3-chlorophenyl)-N-(furan-2-ylmethyl)-6-(2-(2-hydroxyethyl)-1,2,3,4-tetrahydroisoquinolin-7-yl)-7-oxo-4,5,6,7-tetrahydro-1H-pyrazolo[3,4-c]pyridine-3-carboxamide]
10000 to 40000 nM | 10 to 100 nM | Cc1ccncc1CNC(=O)c1nn(-c2cccc(Cl)c2)c2c1CCN(c1ccc3c(c1)CN(CCO)CC3)C2=O [Example 1110, 1-(3-chlorophenyl)-6-(2-(2-hydroxyethyl)-1,2,3,4-tetrahydroisoquinolin-7-yl)-N-((4-methylpyridin-3-yl)methyl)-7-oxo-4,5,6,7-tetrahydro-1H-pyrazolo[3,4-c]pyridine-3-carboxamide]
10000 to 40000 nM | 10 to 100 nM | Cc1ncccc1CNC(=O)c1nn(-c2cccc(Cl)c2)c2c1CCN(c1ccc3c(c1)CN(CCO)CC3)C2=O [Example 1111, 1-(3-chlorophenyl)-6-(2-(2-hydroxyethyl)-1,2,3,4-tetrahydroisoquinolin-7-yl)-N-((2-methylpyridin-3-yl)methyl)-7-oxo-4,5,6,7-tetrahydro-1H-pyrazolo[3,4-c]pyridine-3-carboxamide]
> 40000 nM | 100 to 300 nM | CC1(C)OCCC1NC(=O)c1nn(-c2cccc(Cl)c2)c2c1CCN(c1ccc3c(c1)CN(CCO)CC3)C2=O (stereo not shown) [Example 1112, 1-(3-chlorophenyl)-N-(2,2-dimethyltetrahydrofuran-3-yl)-6-(2-(2-hydroxyethyl)-1,2,3,4-tetrahydroisoquinolin-7-yl)-7-oxo-4,5,6,7-tetrahydro-1H-pyrazolo[3,4-c]pyridine-3-carboxamide]
> 40000 nM | 3000 to 10000 nM | O=C(NCC1CC1)c1nn(-c2cccc(Cl)c2)c2c1CCN(c1ccc3c(c1)CN(C(=O)CO)CC3)C2=O [Example 1114, 1-(3-chlorophenyl)-N-(cyclopropylmethyl)-6-(2-(2-hydroxyacetyl)-1,2,3,4-tetrahydroisoquinolin-7-yl)-7-oxo-4,5,6,7-tetrahydro-1H-pyrazolo[3,4-c]pyridine-3-carboxamide]
10000 to 40000 nM | 100 to 300 nM | CCN1CCc2cnc(N3CCc4c(C(=O)NCC5CC5)nn(-c5cccc(Cl)c5)c4C3=O)cc2C1 [Example 1117, 1-(3-Chlorophenyl)-N-(cyclopropylmethyl)-6-(6-ethyl-5,6,7,8-tetrahydro-2,6-naphthyridin-3-yl)-7-oxo-4,5,6,7-tetrahydro-1H-pyrazolo[3,4-c]pyridine-3-carboxamide]
> 40000 nM | 100 to 300 nM | O=C(NCC1CC1)c1nn(-c2cccc(Cl)c2)c2c1CCN(c1cc3c(cn1)CCN(CCO)C3)C2=O [Example 1118, 1-(3-chlorophenyl)-N-(cyclopropylmethyl)-6-(6-(2-hydroxyethyl)-5,6,7,8-tetrahydro-2,6-naphthyridin-3-yl)-7-oxo-4,5,6,7-tetrahydro-1H-pyrazolo[3,4-c]pyridine-3-carboxamide]
> 40000 nM | 100 to 300 nM | CCN1CCc2c(F)cc(N3CCc4c(C(=O)NCC5CC5)nn(-c5cccc(Cl)c5)c4C3=O)cc2C1 [Example 1121, 1-(3-chlorophenyl)-N-(cyclopropylmethyl)-6-(2-ethyl-5-fluoro-1,2,3,4-tetrahydroisoquinolin-7-yl)-7-oxo-4,5,6,7-tetrahydro-1H-pyrazolo[3,4-c]pyridine-3-carboxamide]
> 40000 nM | 100 to 300 nM | O=C(NCC1CC1)c1nn(-c2cccc(Cl)c2)c2c1CCN(c1cc(F)c3c(c1)CN(CCO)CC3)C2=O [Example 1122, 1-(3-Chlorophenyl)-N-(cyclopropylmethyl)-6-(5-fluoro-2-(2-hydroxyethyl)-1,2,3,4-tetrahydroisoquinolin-7-yl)-7-oxo-4,5,6,7-tetrahydro-1H-pyrazolo[3,4-c]pyridine-3-carboxamide]
